pIC50: −log10 of the molar value.

The target in one assay is T1, PKCε (h) (Homo sapiens, UniProt Q02156).
T1 construct: host or cells: insect cells
T1 sequence (Q02156 1-737): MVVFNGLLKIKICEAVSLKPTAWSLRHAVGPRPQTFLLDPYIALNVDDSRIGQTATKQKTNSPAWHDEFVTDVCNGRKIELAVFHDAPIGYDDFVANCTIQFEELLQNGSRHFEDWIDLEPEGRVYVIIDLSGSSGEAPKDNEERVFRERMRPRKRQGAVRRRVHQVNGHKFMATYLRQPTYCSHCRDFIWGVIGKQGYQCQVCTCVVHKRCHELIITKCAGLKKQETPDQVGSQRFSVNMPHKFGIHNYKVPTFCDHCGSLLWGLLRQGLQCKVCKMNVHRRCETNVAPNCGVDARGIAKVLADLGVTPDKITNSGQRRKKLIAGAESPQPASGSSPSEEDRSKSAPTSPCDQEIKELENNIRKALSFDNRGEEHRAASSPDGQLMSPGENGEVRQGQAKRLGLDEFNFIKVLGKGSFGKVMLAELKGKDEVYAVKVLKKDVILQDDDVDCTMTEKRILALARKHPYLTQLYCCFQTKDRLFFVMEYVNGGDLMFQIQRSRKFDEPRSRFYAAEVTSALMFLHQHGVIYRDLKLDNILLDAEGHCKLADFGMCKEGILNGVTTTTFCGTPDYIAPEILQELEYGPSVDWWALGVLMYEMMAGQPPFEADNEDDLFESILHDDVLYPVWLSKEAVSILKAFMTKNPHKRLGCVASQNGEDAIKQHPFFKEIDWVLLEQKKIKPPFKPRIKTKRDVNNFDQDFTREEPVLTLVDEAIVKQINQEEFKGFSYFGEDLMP
Description: In vitro PKCε kinase assay (radiometric, [γ-33P-ATP], HotSpot). The class given is biochemical. Particulars: recombinant human PKCε, 10 μM ATP; read-out: IC50 in antagonizing the PKCε. Here is the method:
There are many in vitro commercially available and validated bioassays (Ma, H., et al, Expert Opin Drug Discov. 2008 June; 3(6): 607-621 and references therein) which can be used to characterize the activities of compounds of the present invention against PKCε protein kinase. Compounds can be tested against the activity of recombinant PKCε. In a final reaction volume of 25 μL, PKCε (h) (0.4 nM, Human recombinant protein expressed in insect cells. Mw=83.7 kDa) is incubated with kinase buffer (20 mM HEPES-HCl, pH 7.5, 10 mM MgCl2, 1 mM EGTA, 0.02% Brij35, 0.1 mM Na3VO4, 0.02 mg/ml BSA, 2 mM DTT, and 1% DMSO), 0.1 mg/mL phosphatidylserine, 10 μg/mL diacylglycerol, 20 μM S25-PKC peptide substrate (RFARKGSLRQKNV-OH, Mw=1561 Da), 10 mM MgAcetate and 10 μM [γ-33P-ATP] (specific activity approx. 500 cpm/pmol). The reaction is initiated by the addition of the MgATP mix. After incubation for 40 minutes at room temperature, the reaction is stopped by the addition of 5 μL of a 3% phosphoric acid solution. 10 μL of the reaction is then spotted onto a P30 filtermat and washed three times for 5 minutes in 75 mM phosphoric acid and once in methanol prior to drying and scintillation counting Control samples are incubated without inhibitor to measure maximal activity or with the general kinase inhibitor Staurosporine (5 μM) to measure complete inhibition. For each compound the % inhibition can be calculated by the formula, or by curve fits: % Inhibition=(Max activity−Activity with compound)/(Max activity−Activity with Control)*100. Compounds with inhibitory activity are assayed using at least 5 concentrations (1 nM-300 μM). Concentrations are adjusted to generate a complete dose-response curve. Each sample is assayed in duplicate and each experiment is repeated three times. Results are fitted by non-linear regression analysis to a sigmoidal dose-response curve with variable slope to calculate Hill slope, log IC50 and Imax values for each inhibitor, using the program Prism 5 (GraphPad Software, Inc., San Diego, Calif.).
Kinase profiling was performed using HotSpot technology (Reaction Biology Corp. 11 Malvern, Pa., USA). This technology is a radioisotope-based P81 filter-binding assay. Compound of the present invention were dissolved in pure DMSO to make a 10 mM stock, then diluted in pure DMSO to make a serial dilution based on the IC50 ranges. PKCε (h) (0.4 nM, human recombinant protein expressed in insect cells. Mw=83.7 kDa) and substrate (20 μM peptide substrate, [RFARKGSLRQKNV]) were diluted in the reaction buffer (20 mM HEPES-HCl, pH 7.5, 10 mM MgCl2, 1 mM EGTA, 0.02% Brij35, 0.1 mM Na3VO4, 0.02 mg/ml BSA, 2 mM DTT, and 1% DMSO), and then 5 nL of compound was delivered into PKCε (h) and substrate mixture by acoustic technology using Echo 550 (LabCyte Inc., Sunnyvale, Calif.). The reaction was initiated by the addition of [γ-33P-ATP] into the reaction mixture (final concentration was 10 μM) and stopped after at least 40 min incubation at room temperature. The unreacted free 33P-ATP was washed away before detection.
The intrinsic PKCε antagonist activity of a compound which may be used in the present invention may be determined by these assays. […] Such a result is indicative of the intrinsic activity of the compounds in use as antagonists of PKCε.
For the compound `O=C(NCCCN1CCCCCC1)c1ccc(C=C2Sc3ccccc3N(Cc3ccccc3F)C2=O)cc1` (mixture of isomers) [Compound 485, N-[3-(azepan-1-yl)propyl]-4-{(Z/E)-[4-(2-fluorobenzyl)-3-oxo-3,4-dihydro-2H-1,4-benzothiazin-2-ylidene]methyl}benzamide], the pIC50 is 6.00 to 8.00.

`O=C(NCCCN1CCCC1)c1ccc(C=C2Oc3ccccc3N(Cc3ccccc3C(F)(F)F)C2=O)cc1` (mixture of isomers) [Compound 801, 4-[(Z/E)-{3-oxo-4-[2-(trifluoromethyl)benzyl]-3,4-dihydro-2H-1,4-benzoxazin-2-ylidene}methyl]-N-[3-(pyrrolidin-1-yl)propyl]benzamide]: the pIC50 is 6.00 to 8.00.

With `O=C(NCN1CCC2CCCCC2C1)c1ccc(/C=C2\Oc3ccccc3N(Cc3ccccc3F)C2=O)cc1` (mixture of isomers) [Compound 817, 4-{(Z/E)-[4-(2-fluorobenzyl)-3-oxo-3,4-dihydro-2H-1,4-benzoxazin-2-ylidene]methyl}-N-(octahydroisoquinolin-2(1H)-ylmethyl)benzamide], the pIC50 was 6.00 to 8.00.

In the case of `CC(=C1Oc2ccccc2N(Cc2ccc(F)cc2)C1=O)c1ccc(C(=O)NCCCN2CCCCCC2)cc1` (mixture of isomers) [Compound 821, N-[3-(azepan-1-yl)propyl]-4-{(1Z/1E)-1-[4-(4-fluorobenzyl)-3-oxo-3,4-dihydro-2H-1,4-benzoxazin-2-ylidene]ethyl}benzamide], the pIC50 was 6.00 to 8.00.

As to `O=C(NCCCc1ccncc1)c1ccc(C=C2Sc3ccccc3N(Cc3ccccc3F)C2=O)cc1` (mixture of isomers) [Compound 825, 4-{(Z/E)-[4-(2-fluorobenzyl)-3-oxo-3,4-dihydro-2H-1,4-benzothiazin-2-ylidene]methyl}-N-[3-(pyridin-4-yl)propyl]benzamide], the pIC50 is 6.00 to 8.00.

For `CC(=C1Oc2ccccc2N(Cc2ccc(F)cc2)C1=O)c1ccc(C(=O)NCCCN2CCOCC2)cc1` (mixture of isomers) [Compound 829, N-4-{(1Z/1E)-1-[4-(4-fluorobenzyl)-3-oxo-3,4-dihydro-2H-1,4-benzoxazin-2-ylidene]ethyl}-N-[3-(morpholin-4-yl)propyl]benzamide], the pIC50 is 6.00 to 8.00.

Take `CN(CCCN1CCOCC1)C(=O)c1ccc(C=C2Oc3ccccc3N(Cc3ccccc3F)C2=O)cc1` (mixture of isomers) [Compound 841, 4-{(Z/E)-[4-(2-fluorobenzyl)-3-oxo-3,4-dihydro-2H-1,4-benzoxazin-2-ylidene]methyl}-N-methyl-N-[3-(morpholin-4-yl)propyl]benzamide]: the negative logarithm of the IC50 (pIC50) was 6.00 to 8.00.

For `O=C(NCCCN1CCCC1)c1ccc(/C=C2\Oc3ccccc3N(Cc3ccccc3F)C2=O)cc1` [Compound 483, 4-{(Z/E)-[4-(2-fluorobenzyl)-3-oxo-3,4-dihydro-2H-1,4-benzoxazin-2-ylidene]methyl}-N-[3-(pyrrolidin-1-yl)propyl]benzamide hydrate], the pIC50 is 6.00 to 8.00.

`Cc1oc(-c2ccc(Cl)cc2)nc1CN1CCC(C(=O)NCCN2CCCC2)CC1` [Compound 597, 1-{[2-(4-chlorophenyl)-5-methyl-1,3-oxazol-4-yl]methyl}-N-(2-pyrrolidin-1-ylethyl)piperidine-4-carboxamide]: the pIC50 was 6.00 to 8.00.

`C/C(=C1/Oc2ccccc2N(Cc2ccc(F)cc2F)C1=O)c1ccc(C(=O)NCCCN2CCOCC2)cc1` [Compound 837, 4-{(1Z/1E)-1-[4-(2,4-difluorobenzyl)-3-oxo-3,4-dihydro-2H-1,4-benzoxazin-2-ylidene]ethyl}-N-[3-(morpholin-4-yl)propyl]benzamide]: the pIC50 is 6.00 to 8.00.

In the case of `Cc1oc(-c2ccc(Cl)cc2)nc1CN1CCC(C(=O)NCCCN2CCCCCC2)CC1` [Compound 901, N-[3-(azepan-1-yl)propyl]-1-{[2-(4-chlorophenyl)-5-methyl-1,3-oxazol-4-yl]methyl}piperidine-4-carboxamide], the pIC50 is 6.00 to 8.00.

For the compound `Cc1oc(-c2ccc(Cl)cc2)nc1CN1CCC(C(=O)NCCCN2CCC(Cc3ccccc3)CC2)CC1` [Compound 907, N-[3-(4-benzylpiperidin-1-yl)propyl]-1-{[2-(4-chlorophenyl)-5-methyl-1,3-oxazol-4-yl]methyl}piperidine-4-carboxamide], the pIC50 was 6.00 to 8.00.

Take `Cc1oc(-c2cccc(Cl)c2)nc1CN1CCC(C(=O)NCCCN2CCC(Cc3cccc(Cl)c3)CC2)CC1` [Compound 911, N-{3-[4-(3-chlorobenzyl)piperidin-1-yl]propyl}-1-{[2-(3-chlorophenyl)-5-methyl-1,3-oxazol-4-yl]methyl}piperidine-4-carboxamide]: the pIC50 was 6.00 to 8.00.

Regarding `Cc1oc(-c2ccc(Cl)cc2)nc1CN1CCC(C(=O)N(C)CCCN2CCCCCC2)CC1` [Compound 929, N-[3-(azepan-1-yl)propyl]-1-{[2-(4-chlorophenyl)-5-methyl-1,3-oxazol-4-yl]methyl}-N-methylpiperidine-4-carboxamide], the pIC50 was 6.00 to 8.00.

Consider `Cc1oc(-c2ccc(Cl)cc2)nc1CN1CCC(C(=O)NCCCN2CCOCC2)CC1` [Compound 935, 1-{[2-(4-chlorophenyl)-5-methyl-1,3-oxazol-4-yl]methyl}-N-[3-(morpholin-4-yl)propyl]piperidine-4-carboxamide], for which the pIC50 is 6.00 to 8.00.

In the case of `Cc1oc(-c2ccc3c(c2)OCO3)nc1CN1CCC(C(=O)NCCCN2CCCCCC2)CC1` [Compound 949, N-[3-(azepan-1-yl)propyl]-1-{[2-(1,3-benzodioxol-5-yl)-5-methyl-1,3-oxazol-4-yl]methyl}piperidine-4-carboxamide], the pIC50 is 6.00 to 8.00.

In another assay the test system is C57BL/6J mice. Description: Alcohol intake in Drink-in-Dark (DID) model. Type of assay: in vivo. Particulars: 4-hr drinking in the dark (DID) protocol, compared with vehicle control, FIG. 2. From the text: FIG. 2. […] The data are presented as mean±SEM. *p<0.05, ***p<0.001 as compared with the vehicle control.
Alcohol Intake in Drink-in-Dark (DID) model (Rhodes J S, et al, Physiol Behav. (2005) 84:53-63). Mice are acclimated in animal facility and housed three to four per cage in standard cages until 1 week prior to the start of an experiment when they are transferred to individual housing. Approximately 2 weeks prior to the start of an experiment, the mice are switched to a reverse light/dark schedule such that lights turned on at 2030 h and off at 0830 h. Food (Purina 5001™) is always provided ad libitum. Water is provided ad libitum except when ethanol is substituted for water for 4 h per day. The animals are divided into 4 groups and given intraperitoneal (i.p.) injections of vehicle, and a test article (TA) at 5, 20 and 50 mg/kg body weight, respectively, starting 3 h after lights off in the animal rooms. Then the water bottles are replaced with 10 ml graduated cylinders fitted with sipper tubes containing 20% (v/v) ethanol in tap water. The ethanol cylinders remain in place for 4 h. The fluid levels are checked every 30 minutes for 4 h. After the 4-h period, the ethanol cylinders are replaced with water bottles. […] Similarly, mice are administered with TA by oral gavage and ethanol or water intake is monitored for 4 h.
As to `Cc1oc(-c2ccc(Cl)cc2)nc1CN1CCC(C(=O)NCCCN2CCCCCC2)CC1` [Compound 901, N-[3-(azepan-1-yl)propyl]-1-{[2-(4-chlorophenyl)-5-methyl-1,3-oxazol-4-yl]methyl}piperidine-4-carboxamide], the “oral intake of alcohol (20% ethanol)” value was “significantly reduced”.

Values taken from patent US8729081B2, “Compositions and methods for treating alcohol use disorders, pain and other diseases” (VM Discovery Inc., priority 2008, dated 2014).
